Test results as given in patent publication US6362369B1, “Phthalic acid diamide derivatives fluorine-containing aniline compounds as starting material, agricultural and horticultural insecticides, and a method for application of the insecticides” (Nihon Nohyaku Co., Ltd., priority 1997, dated 2002).

Experiments:
Type in all cases: in vivo
[1] = tested on: diamondback moth (Plutella xylostella); experiment: Insecticidal effect on diamondback moth (Test Example 1); conditions: for Insecticidal effect, Test Example 1 / Insecticidal effect (Test Example 1), judged from mortality: diamondback moth; for Insecticidal effect on diamondback moth (Test Example 1), judged grade: mortality judged according to the criterion shown in Test Example 1; for Insecticidal effect (Test Example 1), judged from mortality: judged by the criterion of Test Example 1
Outline: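 Read-out was mortality from hatched-insect counts taken 6 days after the egg-bearing cabbage seedling was immersed, graded by set criteria. Seedlings were air-dried and kept at 25° C after treatment. Groups of 10 insects, in triplicate.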

[2] = tested on: common cutworm (Spodoptera Litura); experiment: Insecticidal effect on common cutworm (Test Example 2); conditions: 500 ppm, 25° C.; for Insecticidal effect, Test Example 2: cabbage leaf immersed; for Insecticidal effect, Test Example 2 / Insecticidal effect on common cutworm (Test Example 2), judged grade: eight days after inoculation; for Insecticidal effect on common cutworm (Test Example 2), judged grade / Insecticidal effect (Test Example 2), judged from mortality: cabbage leaf dip; for Insecticidal effect on common cutworm (Test Example 2), judged grade: second-instar larvae; for Insecticidal effect (Test Example 2), judged from mortality: 8 days after inoculation
Outline: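 Insecticidal effect was rated from percent mortality of second-instar larvae exposed to air-dried treatment at 25° C for 8 days.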

[3] = tested on: rice leafroller (Cnaphalocrocis medinalis); experiment: Insecticidal effect on rice leafroller (Test Example 3); conditions: 500 ppm, 25° C., humidity 70%; for Insecticidal effect, Test Example 3: rice lamina immersed; for Insecticidal effect, Test Example 3 / Insecticidal effect on rice leafroller (Test Example 3), judged grade: four days after inoculation; for Insecticidal effect on rice leafroller (Test Example 3), judged grade / Insecticidal effect (Test Example 3), judged from mortality: rice lamina dip; for Insecticidal effect on rice leafroller (Test Example 3), judged grade: third-instar larvae; for Insecticidal effect (Test Example 3), judged from mortality: 4 days after inoculation
Outline: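 Groups of 10 third-instar larvae, in triplicate, are placed on air-dried lamina resting on wet filter paper. Incubation runs four days at 25° C with 70% humidity before survivors and dead are tallied.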

[4] = judged by the mortality criterion of Test Example 1
[5] = second-instar larvae of common cutworm
[6] = third-instar larvae of rice leafroller
[7] = mortality judged by criterion of Test Example 1
[8] = common cutworm second-instar larvae
[9] = rice leafroller third-instar larvae

Compound: Cc1cc(Oc2ncc(C(F)(F)F)cc2Cl)ccc1NC(=O)c1cccc(I)c1C(=O)NC(C)C [compound 400]
- Insecticidal effect, Test Example 1 [1, 4]: A (100)
- Insecticidal effect, Test Example 2 [2, 5]: D (79-50)
- Insecticidal effect, Test Example 3 [3, 6]: A (100)

Compound: Cc1cc(C(F)(F)C(F)(F)F)ccc1NC(=O)c1cccc(I)c1C(=O)NC1CC1 [compound 1024]
- Insecticidal effect, Test Example 1 [1, 7]: A (100)
- Insecticidal effect, Test Example 2 [2, 8]: A (100)
- Insecticidal effect, Test Example 3 [3, 9]: A (100)

Compound: Cc1cc(OC(F)F)ccc1NC(=O)c1cccc(Cl)c1C(=O)NC1CC1 [compound 849]
- Insecticidal effect on diamondback moth (Test Example 1), judged grade [1]: A (100)
- Insecticidal effect on common cutworm (Test Example 2), judged grade [2]: B (99-90)
- Insecticidal effect on rice leafroller (Test Example 3), judged grade [3]: A (100)

Compound: Cc1cc(OCC(F)OC(F)(F)F)ccc1NC(=O)c1cccc([N+](=O)[O-])c1C(=O)NC(C)C (stereo not drawn) [compound 701]
- Insecticidal effect on diamondback moth (Test Example 1), judged grade [1]: A (100)
- Insecticidal effect on common cutworm (Test Example 2), judged grade [2]: A (100)
- Insecticidal effect on rice leafroller (Test Example 3), judged grade [3]: A (100)

Compound: Cc1cc(C(F)(F)C(F)(F)F)ccc1NC(=O)c1ccc(Cl)cc1C(=O)NC(C)(C)C [compound 1278]
- Insecticidal effect, Test Example 1 [1, 7]: A (100)
- Insecticidal effect, Test Example 2 [2, 8]: A (100)
- Insecticidal effect, Test Example 3 [3, 9]: A (100)

Compound: Cc1cc(OC(F)(F)C(F)C(F)(F)F)ccc1NC(=O)c1c(F)cccc1C(=O)NC(C)C (stereo not drawn) [compound 568]
- Insecticidal effect on diamondback moth (Test Example 1), judged grade [1]: A (100)
- Insecticidal effect on common cutworm (Test Example 2), judged grade [2]: C (89-80)
- Insecticidal effect on rice leafroller (Test Example 3), judged grade [3]: A (100)

Compound: CC(C)(C)NC(=O)c1c(I)cccc1C(=O)Nc1ccc(C(F)(F)F)cc1 [compound 939]
- Insecticidal effect, Test Example 1 [1, 7]: A (100)
- Insecticidal effect, Test Example 2 [2, 8]: A (100)
- Insecticidal effect, Test Example 3 [3, 9]: A (100)

Compound: CCC(C)(C)NC(=O)c1c(F)cccc1C(=O)Nc1ccc(OC(F)(F)F)cc1C [compound 1154]
- Insecticidal effect, Test Example 1 [1, 7]: A (100)
- Insecticidal effect, Test Example 2 [2, 8]: C (89-80)
- Insecticidal effect, Test Example 3 [3, 9]: A (100)

Compound: Cc1cc(OC(F)F)ccc1NC(=O)c1cccc([N+](=O)[O-])c1C(=O)NC(C)C [compound 696, N^1-(4-difluoromethoxy-2-methylphenyl)-N^2-isopropyl-3-nitrophthalic acid diamide]
- Insecticidal effect on diamondback moth (Test Example 1), judged grade [1]: A (100)
- Insecticidal effect on common cutworm (Test Example 2), judged grade [2]: A (100)
- Insecticidal effect on rice leafroller (Test Example 3), judged grade [3]: A (100)

Compound: Cc1c(Cl)cccc1NC(=O)c1cccc(Br)c1C(=O)NC(C)C [compound 266]
- Insecticidal effect, Test Example 1 [1, 4]: A (100)
- Insecticidal effect, Test Example 2 [2, 5]: A (100)
- Insecticidal effect, Test Example 3 [3, 6]: A (100)

Compound: Cc1cc(Oc2ccc(C(F)(F)F)cn2)ccc1NC(=O)c1c(Cl)cccc1C(=O)NC(C)C [compound 249]
- Insecticidal effect, Test Example 1 [1, 4]: A (100)
- Insecticidal effect, Test Example 2 [2, 5]: D (79-50)
- Insecticidal effect, Test Example 3 [3, 6]: A (100)

Compound: Cc1c(NC(=O)c2c(F)cccc2C(=O)NC(C)C)cccc1OC(F)F [compound 558]
- Insecticidal effect on diamondback moth (Test Example 1), judged grade [1]: A (100)
- Insecticidal effect on common cutworm (Test Example 2), judged grade [2]: A (100)
- Insecticidal effect on rice leafroller (Test Example 3), judged grade [3]: A (100)

Compound: Cc1cc(C(F)(F)C(F)(F)C(F)(F)C(F)(F)F)ccc1NC(=O)c1cccc(Br)c1C(=O)NC(C)C [Compound No. 281, 3-bromo-N^1-(4-nonafluorobutyl-2-methylphenyl)-N^2-isopropyl-phthalic acid diamide]
- Insecticidal effect, Test Example 1 [1, 4]: A (100)
- Insecticidal effect, Test Example 2 [2, 5]: A (100)
- Insecticidal effect, Test Example 3 [3, 6]: A (100)

Compound: CC(C)(C)NC(=O)c1c(Cl)cccc1C(=O)Nc1ccc2c(c1)OC(F)(F)O2 [compound 1104]
- Insecticidal effect, Test Example 1 [1, 7]: A (100)
- Insecticidal effect, Test Example 2 [2, 8]: A (100)
- Insecticidal effect, Test Example 3 [3, 9]: A (100)

Compound: CC(C)NC(=O)c1cccc(I)c1C(=O)Nc1ccc(OC(F)(F)C(F)OC(F)(F)C(F)(F)C(F)(F)F)cc1 (stereo not drawn) [compound 419]
- Insecticidal effect, Test Example 1 [1, 4]: A (100)
- Insecticidal effect, Test Example 2 [2, 5]: A (100)
- Insecticidal effect, Test Example 3 [3, 6]: A (100)

Compound: Cc1cc(C(F)(F)C(F)(F)Br)ccc1NC(=O)c1ccccc1C(=O)NC(C)C [compound 63]
- Insecticidal effect, Test Example 1 [1, 4]: A (100)
- Insecticidal effect, Test Example 2 [2, 5]: B (99-90)
- Insecticidal effect, Test Example 3 [3, 6]: A (100)

Compound: CC(C)NC(=O)c1c(F)cccc1C(=O)Nc1ccc(OC(F)(F)F)cc1Cl [compound 508]
- Insecticidal effect on diamondback moth (Test Example 1), judged grade [1]: A (100)
- Insecticidal effect on common cutworm (Test Example 2), judged grade [2]: B (99-90)
- Insecticidal effect on rice leafroller (Test Example 3), judged grade [3]: A (100)

Compound: Cc1cc(SC(F)(F)C(F)(F)F)ccc1NC(=O)c1c(Cl)cccc1C(=O)NC(C)C [compound 908]
- Insecticidal effect on diamondback moth (Test Example 1), judged grade [1]: A (100)
- Insecticidal effect on common cutworm (Test Example 2), judged grade [2]: D (79-50)
- Insecticidal effect on rice leafroller (Test Example 3), judged grade [3]: A (100)

Compound: Cc1ccc(F)cc1NC(=O)c1cccc([N+](=O)[O-])c1C(=O)NC(C)C [compound 676]
- Insecticidal effect on diamondback moth (Test Example 1), judged grade [1]: A (100)
- Insecticidal effect on common cutworm (Test Example 2), judged grade [2]: C (89-80)
- Insecticidal effect on rice leafroller (Test Example 3), judged grade [3]: A (100)

Compound: Cc1cc(OC(F)(F)Br)ccc1NC(=O)c1cccc([N+](=O)[O-])c1C(=O)NC(C)C [compound 711]
- Insecticidal effect on diamondback moth (Test Example 1), judged grade [1]: A (100)
- Insecticidal effect on common cutworm (Test Example 2), judged grade [2]: C (89-80)
- Insecticidal effect on rice leafroller (Test Example 3), judged grade [3]: A (100)

Compound: CC(C)(C)NC(=O)c1c(Cl)cccc1C(=O)Nc1ccc(OC(F)(F)F)cc1 [compound 936]
- Insecticidal effect on diamondback moth (Test Example 1), judged grade [1]: A (100)
- Insecticidal effect on common cutworm (Test Example 2), judged grade [2]: A (100)
- Insecticidal effect on rice leafroller (Test Example 3), judged grade [3]: A (100)

Compound: Cc1cc(C(F)(F)C(F)(F)F)cc(C)c1NC(=O)c1cccc(I)c1C(=O)NC(C)C [compound 1717]
- Insecticidal effect (Test Example 1), judged from mortality [1]: A (100)
- Insecticidal effect (Test Example 2), judged from mortality [2, 5]: A (100)
- Insecticidal effect (Test Example 3), judged from mortality [3, 6]: A (100)

Compound: CC(C)(C)NC(=O)c1c(I)cccc1C(=O)Nc1ccc(C(F)(F)C(F)(F)F)cc1C(F)(F)F [compound 1429]
- Insecticidal effect, Test Example 1 [1, 7]: A (100)
- Insecticidal effect, Test Example 2 [2, 8]: A (100)
- Insecticidal effect, Test Example 3 [3, 9]: A (100)

Compound: Cc1cc(Cl)ccc1NC(=O)c1c(Cl)cccc1C(=O)NC(C)C [compound 214]
- Insecticidal effect, Test Example 1 [1, 4]: A (100)
- Insecticidal effect, Test Example 2 [2, 5]: A (100)
- Insecticidal effect, Test Example 3 [3, 6]: A (100)

Compound: Cc1c(Cl)ccc(NC(=O)c2cccc(Br)c2C(=O)NC(C)C)c1C [compound 269]
- Insecticidal effect, Test Example 1 [1, 4]: A (100)
- Insecticidal effect, Test Example 2 [2, 5]: A (100)
- Insecticidal effect, Test Example 3 [3, 6]: A (100)

Compound: Cc1c(Br)ccc(NC(=O)c2cccc(Br)c2C(=O)NC(C)C)c1C [compound 273]
- Insecticidal effect, Test Example 1 [1, 4]: A (100)
- Insecticidal effect, Test Example 2 [2, 5]: D (79-50)
- Insecticidal effect, Test Example 3 [3, 6]: D (79-50)

Compound: Cc1cc(C(F)(F)C(F)(F)C(F)(F)C(F)(F)F)ccc1NC(=O)c1c(F)cccc1C(=O)NC(C)C [compound 557]
- Insecticidal effect on diamondback moth (Test Example 1), judged grade [1]: A (100)
- Insecticidal effect on common cutworm (Test Example 2), judged grade [2]: C (89-80)
- Insecticidal effect on rice leafroller (Test Example 3), judged grade [3]: B (99-90)

Compound: CCN(CC)C(=O)c1c(F)cccc1C(=O)Nc1ccc(Cl)cc1C [compound 1546]
- Insecticidal effect (Test Example 1), judged from mortality [1]: A (100)
- Insecticidal effect (Test Example 2), judged from mortality [2, 5]: C (89-80)
- Insecticidal effect (Test Example 3), judged from mortality [3, 6]: A (100)

Compound: Cc1cc(SC(F)(F)C(F)(F)F)ccc1NC(=O)c1cccc(Cl)c1C(=O)NC(C)C [compound 907]
- Insecticidal effect on diamondback moth (Test Example 1), judged grade [1]: A (100)
- Insecticidal effect on common cutworm (Test Example 2), judged grade [2]: A (100)
- Insecticidal effect on rice leafroller (Test Example 3), judged grade [3]: A (100)

Compound: CC(C)NC(=O)c1c(I)cccc1C(=O)Nc1ccc(C(F)(F)C(F)(F)F)cc1F [compound 1385]
- Insecticidal effect, Test Example 1 [1, 7]: A (100)
- Insecticidal effect, Test Example 2 [2, 8]: A (100)
- Insecticidal effect, Test Example 3 [3, 9]: A (100)

Compound: Cc1cc(C(F)(F)C(F)(F)F)ccc1NC(=O)c1cccc(C)c1C(=O)NC(C)C [compound 953]
- Insecticidal effect, Test Example 1 [1, 7]: A (100)
- Insecticidal effect, Test Example 2 [2, 8]: A (100)
- Insecticidal effect, Test Example 3 [3, 9]: A (100)

Compound: CCNC(=O)c1c(Cl)cccc1C(=O)Nc1ccc(OC(F)F)cc1C [compound 8]
- Insecticidal effect, Test Example 1 [1, 4]: A (100)
- Insecticidal effect, Test Example 2 [2, 5]: A (100)
- Insecticidal effect, Test Example 3 [3, 6]: A (100)

Compound: CCN(CC)C(=O)c1c(I)cccc1C(=O)Nc1ccc2c(c1)OC(F)(F)O2 [compound 1129]
- Insecticidal effect, Test Example 1 [1, 7]: A (100)
- Insecticidal effect, Test Example 2 [2, 8]: A (100)
- Insecticidal effect, Test Example 3 [3, 9]: A (100)

Compound: Cc1cc(C(F)(F)C(F)(F)F)ccc1NC(=O)c1cccc(I)c1C(=O)N(C(C)C)C(C)C [compound 1081]
- Insecticidal effect, Test Example 1 [1, 7]: A (100)
- Insecticidal effect, Test Example 2 [2, 8]: A (100)
- Insecticidal effect, Test Example 3 [3, 9]: A (100)

Compound: CCCNC(=O)c1c(I)cccc1C(=O)Nc1ccc(C(F)(F)C(F)(F)C(F)(F)F)cc1F [compound 1524]
- Insecticidal effect (Test Example 1), judged from mortality [1]: A (100)
- Insecticidal effect (Test Example 2), judged from mortality [2, 5]: A (100)
- Insecticidal effect (Test Example 3), judged from mortality [3, 6]: A (100)
